# Laboratory results as given in patent US4680293A, “3-imidazolylalkyl-, triazolylalkyl-, pyridinylalkyl-1,2,3-benzotriazin-4(3H)-ones and derivatives thereof” (American Cyanamid Company, priority 1986, dated 1987).
# Biological target: T1, thromboxane synthetase (Rattus norvegicus, UniProt P49430)
# T1 sequence (P49430 1-533): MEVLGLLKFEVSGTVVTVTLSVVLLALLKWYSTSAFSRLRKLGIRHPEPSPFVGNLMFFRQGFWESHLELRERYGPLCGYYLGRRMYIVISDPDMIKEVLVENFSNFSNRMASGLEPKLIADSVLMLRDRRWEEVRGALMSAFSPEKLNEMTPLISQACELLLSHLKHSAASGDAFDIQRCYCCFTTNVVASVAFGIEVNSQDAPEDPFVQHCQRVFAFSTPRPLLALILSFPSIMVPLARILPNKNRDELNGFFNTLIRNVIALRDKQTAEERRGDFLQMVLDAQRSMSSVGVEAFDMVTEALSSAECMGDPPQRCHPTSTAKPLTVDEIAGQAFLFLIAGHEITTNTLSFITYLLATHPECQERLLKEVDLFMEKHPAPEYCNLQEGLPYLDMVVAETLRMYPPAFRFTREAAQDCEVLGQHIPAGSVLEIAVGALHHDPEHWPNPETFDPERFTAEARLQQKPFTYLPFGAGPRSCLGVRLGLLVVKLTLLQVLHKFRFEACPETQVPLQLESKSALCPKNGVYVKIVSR
# Assay: Inhibition of thromboxane formation in washed SHR platelets (TXB2 by direct radioimmunoassay)
# Conditions: read-out: % Inhibition (of TXB2 formation), drug at 10^-4 M, 10 minutes at 37° C.
# Procedure: From Okamoto-Aoki spontaneously hypertensive rats (SHR) (Taconic Farms, Germantown, NY) between 19 and 24 weeks in age, under urethane anesthesia, 10 μl of arterial blood was collected in one ml of 3.2% sodium citrate in a polystyrene tube. The blood was diluted with 3 ml cold saline and centrifuged at room temperature for 15 minutes at 460×g. The platelet rich plasma (PRP) was separated. The platelets were isolated by centrifuging the PRP for 10 minutes at 1060×g and were washed in 4 ml cold oxygenated Krebs phosphate buffer, pH 7.4. The chilled platelets recovered from centrifuging at 800×g for 10 minutes were resuspended in oxygenated Krebs phosphate buffer and diluted to contain 4.5-6.0×10^4 platelets/μl.
# The inhibition of thromboxane (TX) formation was studied by determining the concentration of thromboxane B2 (TXB2), the stable hydrolysis product of TXA2. Assay samples, prepared on ice, contained 200 μl platelet suspension, 50 μl saline, and 50 μl vehicle or drug under study at a concentration of 10^-4 M (with OKY-1581, UK-37248-01, 1-benzylimidazole, and/or indomethacin used as standards). […] The TXB2 content for each sample was determined by a direct radioimmunoassay (RIA) utilizing a TXB2 specific RIA kit purchased from New England Nuclear, Boston, MA and results expressed as pg TXB2 formed minute^-1 sample^- 1, from which the percent inhibition of TXB2 formation was calculated.
row,SMILES,inhibition at 100 µM
1,"CC(Cn1ccnc1)Cn1nnc2ccc(Cl)cc2c1=O (centres unmarked) [6-Chloro-3-[3-(1H-imidazol-1-yl)-2-methylpropyl]-1,2,3-benzotriazin-4(3H)-one]",97%
2,O=c1c2cc(Cl)ccc2nnn1CCCCn1ccnc1,79%
